# Measurements published in PubChem BioAssay AID248 (DTP/NCI, 2004).
# Several values for one entry are separate records, joined by “and”; a condition that tells them apart may be missing. Equal entries are not always repeated. Toxic doses and inconclusive results are not listed.
# System: L1210 leukemia ip in BDF1 mice, survival T/C
# Test: NCI In Vivo Anticancer Drug Screen. Data for tumor model L1210 Leukemia (intraperitoneal) in B6D2F1 (BDF1) mice
# Settings: endpoint: mean survival time, higher = longer survival
# Procedure, shortened: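 Antitumor effect is assessed in tumor-bearing animals. Survival in the compound arm is compared with a vehicle-dosed control arm and expressed as their quotient.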
smiles,measurement,setting,value
NC(=S)N/N=C/c1ccccn1,T/C,"dose: 0.48 mg/kg/injection, schedule: Q01DX009 (ip), vehicle: saline with Tween-80",97 % of control and 115 % of control
same,T/C,"dose: 0.9 mg/kg/injection, schedule: Q04DX002 (ip), vehicle: saline with Tween-80",100 % of control and 107 % of control
same,T/C,"dose: 0.95 mg/kg/injection, schedule: Q01DX009 (ip), vehicle: saline with Tween-80",106 % of control and 115 % of control
same,T/C,"dose: 1.0 mg/kg/injection, schedule: Q03HX032 (ip), vehicle: other",117 % of control
same,T/C,"dose: 1.3 mg/kg/injection, schedule: Q01DX Z (ip), vehicle: carboxymethylcellulose (CMC)",118 % of control
same,T/C,"dose: 1.8 mg/kg/injection, schedule: Q03HX024 (ip), vehicle: carboxymethylcellulose (CMC)",92 % of control
same,T/C,"dose: 1.8 mg/kg/injection, schedule: Q03HX024 (ip), vehicle: other",111 % of control
same,T/C,"dose: 1.8 mg/kg/injection, schedule: Q04DX002 (ip), vehicle: saline with Tween-80",106 % of control and 110 % of control
same,T/C,"dose: 1.9 mg/kg/injection, schedule: Q01DX009 (ip), vehicle: saline with Tween-80",113 % of control and 121 % of control
same,T/C,"dose: 2.6 mg/kg/injection, schedule: Q03HX032 (ip), vehicle: other",213 % of control
same,T/C,"dose: 3.0 mg/kg/injection, schedule: Q01DX015 (ip), vehicle: saline",105 % of control
same,T/C,"dose: 3.0 mg/kg/injection, schedule: Q03HX032 (ip), vehicle: other",168 % of control
same,T/C,"dose: 3.5 mg/kg/injection, schedule: Q03HX008 (ip), vehicle: other",164 % of control
same,T/C,"dose: 3.5 mg/kg/injection, schedule: Q03HX016 (ip), vehicle: other",192 % of control
same,T/C,"dose: 3.5 mg/kg/injection, schedule: Q03HX024 (ip), vehicle: other",368 % of control
same,T/C,"dose: 3.5 mg/kg/injection, schedule: Q04DX002 (ip), vehicle: saline with Tween-80",104 % of control and 91 % of control
same,T/C,"dose: 3.8 mg/kg/injection, schedule: Q01DX009 (ip), vehicle: saline with Tween-80",121 % of control
same,T/C,"dose: 4.0 mg/kg/injection, schedule: Q03HX024 (ip), vehicle: carboxymethylcellulose (CMC)",197 % of control
same,T/C,"dose: 4.0 mg/kg/injection, schedule: Q03HX024 (ip), vehicle: other",337 % of control
same,T/C,"dose: 4.0 mg/kg/injection, schedule: Q03HX024 (ip), vehicle: saline with Tween-80",345 % of control
same,T/C,"dose: 4.4 mg/kg/injection, schedule: Q01DX009 (ip), vehicle: saline",114 % of control
same,T/C,"dose: 4.4 mg/kg/injection, schedule: Q02DX010 (ip), vehicle: carboxymethylcellulose (CMC)",114 % of control
same,T/C,"dose: 5.0 mg/kg/injection, schedule: Q01DX015 (ip), vehicle: saline",103 % of control
same,T/C,"dose: 5.0 mg/kg/injection, schedule: Q03HX008 (ip), vehicle: other",175 % of control
same,T/C,"dose: 5.0 mg/kg/injection, schedule: Q03HX016 (ip), vehicle: other",261 % of control
same,T/C,"dose: 5.0 mg/kg/injection, schedule: Q03HX024 (ip), vehicle: other",526 % of control
same,T/C,"dose: 5.0 mg/kg/injection, schedule: Q03HX032 (ip), vehicle: other",420 % of control
same,T/C,"dose: 5.0 mg/kg/injection, schedule: Q04DX003 (ip), vehicle: other",105 % of control
same,T/C,"dose: 5.0 mg/kg/injection, schedule: Q04DX003 (ip), vehicle: saline with Tween-80",116 % of control
same,T/C,"dose: 5.0 mg/kg/injection, schedule: Q08DX002 (ip), vehicle: other",102 % of control
same,T/C,"dose: 6.0 mg/kg/injection, schedule: Q03HX024 (ip), vehicle: saline with Tween-80",376 % of control
same,T/C,"dose: 6.6 mg/kg/injection, schedule: Q02DX010 (ip), vehicle: carboxymethylcellulose (CMC)",121 % of control
same,T/C,"dose: 6.7 mg/kg/injection, schedule: Q01DX015 (ip), vehicle: other",169 % of control
same,T/C,"dose: 6.7 mg/kg/injection, schedule: Q02DX010 (ip), vehicle: carboxymethylcellulose (CMC)",114 % of control
same,T/C,"dose: 7.0 mg/kg/injection, schedule: Q01DX015 (ip), vehicle: saline",152 % of control
same,T/C,"dose: 7.0 mg/kg/injection, schedule: Q04DX002 (ip), vehicle: saline with Tween-80",107 % of control and 116 % of control
same,T/C,"dose: 7.5 mg/kg/injection, schedule: Q03HX032 (ip), vehicle: other",150 % of control
same,T/C,"dose: 8.0 mg/kg/injection, schedule: Q04DX003 (ip), vehicle: other",101 % of control
same,T/C,"dose: 8.0 mg/kg/injection, schedule: Q08DX002 (ip), vehicle: other",104 % of control
same,T/C,"dose: 10.0 mg/kg/injection, schedule: Q01DX009 (ip), vehicle: other",155 % of control
same,T/C,"dose: 10.0 mg/kg/injection, schedule: Q01DX009 (ip), vehicle: saline",114 % of control
same,T/C,"dose: 10.0 mg/kg/injection, schedule: Q01DX015 (ip), vehicle: other",164 % of control
same,T/C,"dose: 10.0 mg/kg/injection, schedule: Q02DX010 (ip), vehicle: carboxymethylcellulose (CMC)",120 % of control
same,T/C,"dose: 10.0 mg/kg/injection, schedule: Q04DX003 (ip), vehicle: saline with Tween-80",114 % of control
same,T/C,"dose: 10.7 mg/kg/injection, schedule: Q01DX Z (ip), vehicle: carboxymethylcellulose (CMC)",116 % of control
same,T/C,"dose: 11.0 mg/kg/injection, schedule: Q01DX015 (ip), vehicle: saline",116 % of control
same,T/C,"dose: 12.0 mg/kg/injection, schedule: Q04DX003 (ip), vehicle: other",107 % of control
same,T/C,"dose: 12.0 mg/kg/injection, schedule: Q08DX002 (ip), vehicle: other",100 % of control
same,T/C,"dose: 14.0 mg/kg/injection, schedule: Q04DX002 (ip), vehicle: saline with Tween-80",110 % of control and 112 % of control
same,T/C,"dose: 14.5 mg/kg/injection, schedule: Q01DX001 (ip), vehicle: other",105 % of control
same,T/C,"dose: 15.0 mg/kg/injection, schedule: Q01DX009 (ip), vehicle: other",159 % of control
same,T/C,"dose: 15.0 mg/kg/injection, schedule: Q02DX010 (ip), vehicle: carboxymethylcellulose (CMC)",120 % of control and 121 % of control (2×)
same,T/C,"dose: 17.0 mg/kg/injection, schedule: Q01DX015 (ip), vehicle: saline",104 % of control
same,T/C,"dose: 18.0 mg/kg/injection, schedule: Q04DX003 (ip), vehicle: other",112 % of control
same,T/C,"dose: 18.0 mg/kg/injection, schedule: Q08DX002 (ip), vehicle: other",97 % of control
same,T/C,"dose: 20.0 mg/kg/injection, schedule: Q04DX003 (ip), vehicle: saline with Tween-80",109 % of control
same,T/C,"dose: 22.0 mg/kg/injection, schedule: Q01DX001 (ip), vehicle: other",101 % of control and 114 % of control
same,T/C,"dose: 22.5 mg/kg/injection, schedule: Q02DX010 (ip), vehicle: carboxymethylcellulose (CMC)",109 % of control and 90 % of control
same,T/C,"dose: 25.0 mg/kg/injection, schedule: Q01DX015 (ip), vehicle: saline",90 % of control
same,T/C,"dose: 27.0 mg/kg/injection, schedule: Q04DX003 (ip), vehicle: other",104 % of control
same,T/C,"dose: 27.0 mg/kg/injection, schedule: Q08DX002 (ip), vehicle: other",95 % of control
same,T/C,"dose: 28.0 mg/kg/injection, schedule: Q04DX002 (ip), vehicle: saline with Tween-80",104 % of control and 107 % of control
same,T/C,"dose: 30.0 mg/kg/injection, schedule: Q01DX009 (ip), vehicle: saline with Tween-80",90 % of control
same,T/C,"dose: 33.0 mg/kg/injection, schedule: Q01DX001 (ip), vehicle: other",105 % of control and 112 % of control
same,T/C,"dose: 34.0 mg/kg/injection, schedule: Q02DX010 (ip), vehicle: carboxymethylcellulose (CMC)",73 % of control and 89 % of control
same,T/C,"dose: 50.0 mg/kg/injection, schedule: Q01DX001 (ip), vehicle: other",104 % of control
c1ccc2c[n+](CCc3c[nH]c4ccccc34)ccc2c1,T/C,"dose: 100.0 mg/kg/injection, schedule: Q04DX002 (ip), vehicle: Klucel (hydroxypropylcellulose) (HPC)",100 % of control
same,T/C,"dose: 100.0 mg/kg/injection, schedule: Q04DX003 (ip), vehicle: Klucel (hydroxypropylcellulose) (HPC)",96 % of control
same,T/C,"dose: 200.0 mg/kg/injection, schedule: Q04DX003 (ip), vehicle: Klucel (hydroxypropylcellulose) (HPC)",104 % of control
O=P1(CCc2ccc(Cl)cc2)CC(Br)C(Br)C1 (stereo unspecified),T/C,"dose: 100.0 mg/kg/injection, schedule: Q04DX003 (ip), vehicle: other",93 % of control
same,T/C,"dose: 200.0 mg/kg/injection, schedule: Q04DX003 (ip), vehicle: other",95 % of control
same,T/C,"dose: 400.0 mg/kg/injection, schedule: Q04DX003 (ip), vehicle: other",98 % of control
Cc1cc(C)cc(C(C)(C)C)c1,T/C,"dose: 100.0 mg/kg/injection, schedule: Q04DX003 (ip), vehicle: saline with Tween-80",92 % of control
same,T/C,"dose: 200.0 mg/kg/injection, schedule: Q04DX003 (ip), vehicle: saline with Tween-80",92 % of control
same,T/C,"dose: 400.0 mg/kg/injection, schedule: Q04DX003 (ip), vehicle: saline with Tween-80",95 % of control
COc1ccc(C)cc1NC(=O)Nc1ccc(SC)cc1,T/C,"dose: 100.0 mg/kg/injection, schedule: Q01DX009 (ip), vehicle: Klucel (hydroxypropylcellulose) (HPC)",87 % of control
same,T/C,"dose: 200.0 mg/kg/injection, schedule: Q01DX009 (ip), vehicle: Klucel (hydroxypropylcellulose) (HPC)",95 % of control
same,T/C,"dose: 400.0 mg/kg/injection, schedule: Q01DX009 (ip), vehicle: Klucel (hydroxypropylcellulose) (HPC)",90 % of control
Cc1ccc(S(=O)(=O)N=Nc2c(O)[nH]c3ccccc23)cc1,T/C,"dose: 75.0 mg/kg/injection, schedule: Q04DX002 (ip), vehicle: gum acacia",93 % of control
same,T/C,"dose: 150.0 mg/kg/injection, schedule: Q04DX002 (ip), vehicle: gum acacia",93 % of control
same,T/C,"dose: 300.0 mg/kg/injection, schedule: Q04DX002 (ip), vehicle: gum acacia",100 % of control
